Measurements from paper PMC6965684, “Characterization of binding, functional activity, and contractile responses of the selective 5‐HT1F receptor agonist lasmiditan” (British Journal of Pharmacology, 2019).
pEC50: −log10 of the molar value. Where a name gives a salt, the structure may show the parent alone. Read-outs that look alike come from different tables or passages of the source.

Legend:
5-HT1F receptor [1] = target: T1, 5-HT1F receptor (Homo sapiens, UniProt P30939); test: radioligand competition, CHO-K1 membranes; format: binding; conditions: read-out: 5-HT1F / pKi (converted)
T1 construct: gene HTR1F; full-length human recombinant receptor in CHO-K1 cells (Ogeda)
T1 sequence (P30939 1-366): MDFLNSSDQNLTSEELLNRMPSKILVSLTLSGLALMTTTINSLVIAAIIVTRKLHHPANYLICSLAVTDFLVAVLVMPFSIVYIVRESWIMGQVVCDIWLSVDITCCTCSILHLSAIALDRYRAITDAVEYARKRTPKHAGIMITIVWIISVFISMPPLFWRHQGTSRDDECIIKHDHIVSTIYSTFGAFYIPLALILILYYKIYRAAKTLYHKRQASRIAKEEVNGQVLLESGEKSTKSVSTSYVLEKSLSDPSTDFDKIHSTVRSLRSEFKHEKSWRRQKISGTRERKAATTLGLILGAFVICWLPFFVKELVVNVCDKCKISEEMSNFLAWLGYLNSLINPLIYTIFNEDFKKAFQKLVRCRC

5-HT1F receptor [2] = target: T1, 5-HT1F receptor; test: biochemical; format: CHO-K1 membranes; design: radioligand competition binding on cell membranes, filtration and TopCount scintillation counting; conditions: radioligand displacement; for IC50: read-out: 5‐HT1F / pIC50 (converted); for Ki: read-out: 5‐HT1F / pKi (converted)
Procedure: Competition binding was performed in duplicate in the wells of a 96‐well plate containing binding buffer (optimized for each receptor), cell membrane extracts (approximately 20,000 cells distributed in the 96‐well plate), radiotracer, and test agonist. Non‐specific binding was determined by co‐incubation with 200‐fold excess of competitor. Cells were incubated and exposed to varying concentrations (1 pM to 10 μM) of a range of displacer agonists (see below). The samples were incubated in a final volume of 0.1 ml and then filtered over Unifilter plates (Perkin Elmer, Massachusetts, USA) pretreated for 2 hr to limit tracer non‐specific binding. Filters were washed five times with 0.5 ml of ice‐cold washing buffer (tris 50 mM pH 7.4) and 50 μl of Microscint 20 (Perkin Elmer) were added to each filter. The plates were incubated 15 min at room temperature on an orbital shaker and then counted with a TopCount™ (Perkin Elmer) for 1 min per well. […] Additionally, the reference values obtained were compared to historical values obtained from the same receptor and used to validate the experimental session. […] For the new assays developed in this study (i.e., 5‐ht1E receptor), the two independent pIC50 determined must be concordant with a 1 log unit interval for the assays to be validated. […]

5-HT1B receptor [3] = target: T2, 5-HT1B receptor (Homo sapiens, UniProt P28222); test: radioligand competition, CHO-K1 membranes; format: binding; conditions: read-out: 5-HT1B / pKi (converted)
T2 construct: gene HTR1B; full-length human recombinant receptor in CHO-K1 cells (Ogeda); crude membranes
Text: radioligand competition, CHO-K1 membranes on 5-HT1B receptor

5-HT2A receptor = target: T3, 5-HT2A receptor (Homo sapiens, UniProt P28223); test: radioligand competition, CHO-K1 membranes; format: binding; conditions: read-out: 5-HT2A / pKi (converted)
T3 construct: gene HTR2A; full-length human recombinant receptor in CHO-K1 cells (Ogeda); crude membranes
Text: radioligand competition, CHO-K1 membranes on 5-HT2A receptor

5-HT1B receptor [4] = target: T2, 5-HT1B receptor; test: biochemical; format: CHO-K1 membranes; design: GTPγS agonist functional assay; conditions: for EC50: GTPγS, read-out: 5‐HT1B / GTPγS (converted)
Text: (§1) Additionally, the reference values obtained were compared to historical values obtained from the same receptor and used to validate the experimental session. […] For the new assays developed in this study (i.e., 5‐ht1E receptor), the two independent pIC50 determined must be concordant with a 1 log unit interval for the assays to be validated.

5-ht1E receptor = target: T4, 5-ht1E receptor (Homo sapiens, UniProt P28566); test: biochemical; format: CHO-K1 membranes; design: GTPγS agonist functional assay; conditions: GTPγS
T4 construct: gene HTR1E; full-length human recombinant receptor in CHO-K1 cells (Ogeda); crude membranes
Text: as §1

5-HT1D receptor = target: T5, 5-HT1D receptor (Homo sapiens, UniProt P28221); test: biochemical; format: CHO-K1 membranes; design: GTPγS agonist functional assay; conditions: for EC50: GTPγS, read-out: 5‐HT1D / GTPγS (converted)
T5 construct: gene HTR1D; full-length human recombinant receptor in CHO-K1 cells (Ogeda); crude membranes
Text: as §1

5-HT1F receptor [5] = target: T1, 5-HT1F receptor; test: biochemical; format: CHO-K1 membranes; design: GTPγS agonist functional assay; conditions: GTPγS
Text: as §1

5-HT1F receptor [6] = target: T1, 5-HT1F receptor; test: cAMP HTRF, stably transfected CHO-K1 cells; format: cell-based; conditions: for EC50: read-out: 5-HT1F / cAMP (converted)
5-HT2B receptor = target: T6, 5-HT2B receptor (Homo sapiens, UniProt P41595); test: radioligand competition, CHO-K1 membranes; format: binding; conditions: for Ki: read-out: 5-HT2B / pKi (converted)
T6 construct: gene HTR2B; full-length human recombinant receptor in CHO-K1 cells (Ogeda); crude membranes
Text: radioligand competition, CHO-K1 membranes on 5-HT2B receptor

5-HT1A receptor = target: T7, 5-HT1A receptor (Homo sapiens, UniProt P08908); test: radioligand competition, CHO-K1 membranes; format: binding; conditions: read-out: 5-HT1A / pKi (converted)
T7 construct: gene HTR1A; full-length human recombinant receptor in CHO-K1 cells (Ogeda); crude membranes
T7 sequence (P08908 1-422): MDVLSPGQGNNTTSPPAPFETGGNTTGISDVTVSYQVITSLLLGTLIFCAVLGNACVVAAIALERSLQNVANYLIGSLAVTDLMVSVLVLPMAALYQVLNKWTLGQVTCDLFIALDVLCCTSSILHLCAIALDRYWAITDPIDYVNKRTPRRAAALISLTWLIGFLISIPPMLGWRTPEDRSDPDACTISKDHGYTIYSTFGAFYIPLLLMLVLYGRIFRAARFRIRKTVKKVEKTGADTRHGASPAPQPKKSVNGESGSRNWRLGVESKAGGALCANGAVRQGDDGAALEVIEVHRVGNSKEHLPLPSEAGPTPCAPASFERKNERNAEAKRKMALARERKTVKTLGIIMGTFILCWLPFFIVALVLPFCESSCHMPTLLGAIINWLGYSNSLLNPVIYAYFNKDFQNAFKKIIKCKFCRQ
Text: radioligand competition, CHO-K1 membranes on 5-HT1A receptor

T3 sequence (P28223 whole entry): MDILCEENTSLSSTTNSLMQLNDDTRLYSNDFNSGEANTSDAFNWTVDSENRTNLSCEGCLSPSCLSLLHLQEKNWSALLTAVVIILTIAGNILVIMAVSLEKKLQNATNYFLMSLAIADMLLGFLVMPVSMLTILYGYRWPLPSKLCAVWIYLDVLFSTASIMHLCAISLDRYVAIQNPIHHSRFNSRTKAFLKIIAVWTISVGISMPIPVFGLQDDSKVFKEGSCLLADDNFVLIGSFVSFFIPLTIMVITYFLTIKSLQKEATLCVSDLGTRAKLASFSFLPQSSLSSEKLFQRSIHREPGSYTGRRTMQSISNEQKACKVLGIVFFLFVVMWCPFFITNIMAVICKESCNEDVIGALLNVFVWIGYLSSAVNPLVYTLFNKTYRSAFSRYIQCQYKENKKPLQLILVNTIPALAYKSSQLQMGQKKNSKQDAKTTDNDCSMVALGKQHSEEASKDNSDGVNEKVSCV
T5 sequence (P28221 whole entry): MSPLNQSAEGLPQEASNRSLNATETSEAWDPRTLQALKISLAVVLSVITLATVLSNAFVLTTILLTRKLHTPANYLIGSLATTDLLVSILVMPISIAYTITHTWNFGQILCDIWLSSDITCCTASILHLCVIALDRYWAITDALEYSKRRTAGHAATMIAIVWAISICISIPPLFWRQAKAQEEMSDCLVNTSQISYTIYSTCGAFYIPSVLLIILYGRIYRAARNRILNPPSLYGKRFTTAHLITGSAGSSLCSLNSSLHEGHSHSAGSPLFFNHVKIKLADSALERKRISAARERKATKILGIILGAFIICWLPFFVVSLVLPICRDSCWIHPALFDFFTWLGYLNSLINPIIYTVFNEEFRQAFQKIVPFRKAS
T2 sequence (P28222 whole entry): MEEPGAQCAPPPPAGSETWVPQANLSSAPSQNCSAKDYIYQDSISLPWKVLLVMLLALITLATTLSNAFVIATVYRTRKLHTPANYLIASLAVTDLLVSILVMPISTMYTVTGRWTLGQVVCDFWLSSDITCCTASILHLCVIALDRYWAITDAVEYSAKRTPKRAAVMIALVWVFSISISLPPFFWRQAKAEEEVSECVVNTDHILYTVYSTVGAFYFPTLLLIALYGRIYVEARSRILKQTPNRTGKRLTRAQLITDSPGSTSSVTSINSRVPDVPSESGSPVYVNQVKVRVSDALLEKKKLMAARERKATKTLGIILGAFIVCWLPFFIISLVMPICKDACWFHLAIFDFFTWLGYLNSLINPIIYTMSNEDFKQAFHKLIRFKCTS
T6 sequence (P41595 whole entry): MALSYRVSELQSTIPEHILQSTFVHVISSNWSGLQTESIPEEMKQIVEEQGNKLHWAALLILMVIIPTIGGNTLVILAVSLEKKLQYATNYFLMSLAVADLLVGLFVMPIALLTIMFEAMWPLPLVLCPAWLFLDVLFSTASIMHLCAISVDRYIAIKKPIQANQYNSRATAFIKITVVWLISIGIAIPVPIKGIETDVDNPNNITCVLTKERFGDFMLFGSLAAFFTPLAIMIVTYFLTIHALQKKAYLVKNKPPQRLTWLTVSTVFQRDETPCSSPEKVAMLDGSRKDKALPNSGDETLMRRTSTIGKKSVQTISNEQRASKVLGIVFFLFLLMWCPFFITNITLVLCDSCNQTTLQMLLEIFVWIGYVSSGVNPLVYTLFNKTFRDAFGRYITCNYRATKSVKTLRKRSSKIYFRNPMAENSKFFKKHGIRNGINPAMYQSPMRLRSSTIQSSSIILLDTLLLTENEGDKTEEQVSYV
T4 sequence (P28566 whole entry): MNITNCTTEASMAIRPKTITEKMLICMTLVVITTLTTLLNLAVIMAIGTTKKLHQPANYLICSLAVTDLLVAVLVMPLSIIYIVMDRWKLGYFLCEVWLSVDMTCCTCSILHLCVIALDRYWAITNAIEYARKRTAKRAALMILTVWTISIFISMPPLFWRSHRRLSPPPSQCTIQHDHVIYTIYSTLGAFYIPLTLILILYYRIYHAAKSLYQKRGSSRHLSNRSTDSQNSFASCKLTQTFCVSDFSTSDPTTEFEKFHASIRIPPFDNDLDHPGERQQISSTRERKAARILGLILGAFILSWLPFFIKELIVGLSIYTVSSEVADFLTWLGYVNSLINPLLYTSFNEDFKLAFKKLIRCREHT

SMILES | Ki (5-HT1F receptor [1]) | IC50 (5-HT1F receptor [2]) | Ki (5-HT1B receptor [3]) | Ki (5-HT2A receptor) | EC50 (5-HT1B receptor [4]) | pEC50 (5-ht1E receptor) | EC50 (5-HT1D receptor) | pEC50 (5-HT1F receptor [5]) | EC50 (5-HT1F receptor [6]) | Ki (5-HT2B receptor) | Ki (5-HT1A receptor) | Ki (5-HT1F receptor [2]) | pEC50 (5-HT1B receptor [4]) | pEC50 (5-HT1D receptor) | pEC50 (5-HT1F receptor [6]; read-out: 5-HT1A / cAMP) | 5-HT2B / pKi (5-HT2B receptor; radioligand listed in supplement Table S1, unreliable (pIC50 printed as <[…]))
CNS(=O)(=O)Cc1ccc2[nH]cc(CCCN3CCN(c4ncncc4OC)CC3)c2c1 [Avitriptan fumarate] | 77.6 nM | 204 nM | 1.58 nM | 2340 nM | 2.09 nM | < 5.00 | 0.537 nM | 6.05 | 81.3 nM | 1150 nM | 19.5 nM |  |  |  |  | 
CN(C)[C@@H]1CCc2[nH]c3ccc(NC(=O)c4ccc(F)cc4)cc3c2C1 [LY344864 hydrochloride] |  | 4.17 nM |  |  |  |  | 117 nM | 7.85 |  |  |  | 1.58 nM |  |  |  | 
N#Cc1ccc(N2CCN(C(=O)COc3ccc4[nH]cc(CCN)c4c3)CC2)cc1 [Donitriptan hydrochloride] |  |  | 0.17 nM | 447 nM |  | < 5.00 |  |  |  | 813 nM | 11.7 nM |  | 9.52 | 9.51 | < 5.00 | 
CNC1CCc2[nH]c3ccc(C(N)=O)cc3c2C1 (racemic) [Frovatriptan racemate] |  | 316 nM |  |  |  | < 5.00 |  | 6.35 |  |  |  | 120 nM |  |  |  | 
CNS(=O)(=O)CCc1ccc2[nH]cc(C3CCN(C)CC3)c2c1 [Naratriptan hydrochloride] | 1.78 nM | 4.68 nM | 0.603 nM |  | 1.38 nM | 8.17 |  | 8.05 | 4.17 nM |  | 15.1 nM |  |  |  |  | 5.08 -log M
CN1CCC[C@@H]1Cc1c[nH]c2ccc(CCS(=O)(=O)c3ccccc3)cc12 [Eletriptan hydrobromide] | 17 nM | 44.7 nM | 0.525 nM | 1150 nM | 8.13 nM | 6.90 | 0.912 nM | 6.88 | 7.41 nM | 447 nM | 1.95 nM |  |  |  |  | 
